Results: article PMC10337980 (PLOS Genetics, 2023)
Where a chain is given by its changes, count along the chain named.

Key:
Format in all cases: cell-based
DmRDL [1] = molecular target: T1, DmRDL (Drosophila melanogaster, UniProt P25123, G335M); test: two-electrode voltage clamp, inhibition of GABA-induced current in Xenopus oocytes
T1 construct: gene Rdl; homomeric
T1 sequence (P25123 45-606 G335M): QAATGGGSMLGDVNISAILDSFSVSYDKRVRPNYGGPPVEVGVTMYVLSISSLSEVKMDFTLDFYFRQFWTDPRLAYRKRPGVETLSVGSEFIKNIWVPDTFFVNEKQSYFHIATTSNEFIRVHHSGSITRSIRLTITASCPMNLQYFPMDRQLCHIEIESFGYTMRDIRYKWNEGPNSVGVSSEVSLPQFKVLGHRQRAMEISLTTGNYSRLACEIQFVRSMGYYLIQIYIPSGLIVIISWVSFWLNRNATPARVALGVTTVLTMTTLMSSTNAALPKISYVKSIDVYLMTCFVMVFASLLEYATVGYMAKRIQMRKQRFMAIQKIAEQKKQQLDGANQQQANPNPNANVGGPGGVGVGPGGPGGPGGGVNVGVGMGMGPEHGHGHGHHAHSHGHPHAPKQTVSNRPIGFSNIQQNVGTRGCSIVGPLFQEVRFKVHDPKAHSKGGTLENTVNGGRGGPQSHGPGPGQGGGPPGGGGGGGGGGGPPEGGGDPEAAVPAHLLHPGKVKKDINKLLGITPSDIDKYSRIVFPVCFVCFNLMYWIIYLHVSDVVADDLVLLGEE

CsRDL [2] = molecular target: T2, CsRDL (Chilo suppressalis, UniProt E2IKR3); test: as above
T2 construct: homomeric channel
T2 sequence (E2IKR3 27-496): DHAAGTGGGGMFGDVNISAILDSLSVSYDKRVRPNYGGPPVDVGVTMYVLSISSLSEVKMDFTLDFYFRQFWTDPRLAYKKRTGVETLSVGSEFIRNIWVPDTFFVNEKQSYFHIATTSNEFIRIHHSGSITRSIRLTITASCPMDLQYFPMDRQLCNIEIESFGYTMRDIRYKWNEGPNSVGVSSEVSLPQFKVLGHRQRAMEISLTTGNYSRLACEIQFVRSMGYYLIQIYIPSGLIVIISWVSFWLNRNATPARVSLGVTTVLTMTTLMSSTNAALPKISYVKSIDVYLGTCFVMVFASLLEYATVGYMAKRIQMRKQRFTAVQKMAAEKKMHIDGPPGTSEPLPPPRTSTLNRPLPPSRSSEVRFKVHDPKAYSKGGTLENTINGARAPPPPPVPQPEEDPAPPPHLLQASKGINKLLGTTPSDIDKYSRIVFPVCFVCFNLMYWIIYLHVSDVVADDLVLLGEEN

DmRDL [3] = molecular target: T3, DmRDL (Drosophila melanogaster, UniProt P25123); test: as above
T3 construct: gene Rdl; homomeric
T3 sequence (P25123 45-606): T1 sequence (P25123 45-606 G335M) with M291G

TuRDL [4] = molecular target: T4, TuRDL (Tetranychus urticae, UniProt E3WEB3); test: as above
T4 construct: gene Rdl; homomeric
T4 sequence (E3WEB3 18-827): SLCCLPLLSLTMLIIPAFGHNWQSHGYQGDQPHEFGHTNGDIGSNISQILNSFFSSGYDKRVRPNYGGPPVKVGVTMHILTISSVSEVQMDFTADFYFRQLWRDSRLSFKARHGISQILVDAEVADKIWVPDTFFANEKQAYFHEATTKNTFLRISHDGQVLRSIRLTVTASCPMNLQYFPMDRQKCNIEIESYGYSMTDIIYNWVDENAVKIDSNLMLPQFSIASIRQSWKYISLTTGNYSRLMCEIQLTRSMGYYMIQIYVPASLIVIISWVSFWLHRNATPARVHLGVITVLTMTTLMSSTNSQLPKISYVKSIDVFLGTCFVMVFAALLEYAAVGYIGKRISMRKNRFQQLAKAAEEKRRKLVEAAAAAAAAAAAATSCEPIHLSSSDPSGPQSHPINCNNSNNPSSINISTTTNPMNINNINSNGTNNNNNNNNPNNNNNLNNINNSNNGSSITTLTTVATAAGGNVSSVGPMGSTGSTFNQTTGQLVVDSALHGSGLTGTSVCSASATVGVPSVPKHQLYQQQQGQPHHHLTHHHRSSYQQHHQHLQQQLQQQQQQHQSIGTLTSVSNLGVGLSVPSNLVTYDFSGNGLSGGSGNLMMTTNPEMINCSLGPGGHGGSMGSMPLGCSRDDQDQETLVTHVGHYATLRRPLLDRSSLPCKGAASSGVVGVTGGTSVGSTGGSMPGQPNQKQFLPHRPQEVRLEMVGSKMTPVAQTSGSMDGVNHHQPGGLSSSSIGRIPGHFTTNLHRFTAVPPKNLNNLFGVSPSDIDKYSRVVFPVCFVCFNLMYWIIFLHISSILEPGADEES

LsRDL [5] = molecular target: T5, LsRDL (Laodelphax striatellus, UniProt Q0ECT5); test: as above
T5 construct: homomeric
T5 sequence (Q0ECT5 23-487): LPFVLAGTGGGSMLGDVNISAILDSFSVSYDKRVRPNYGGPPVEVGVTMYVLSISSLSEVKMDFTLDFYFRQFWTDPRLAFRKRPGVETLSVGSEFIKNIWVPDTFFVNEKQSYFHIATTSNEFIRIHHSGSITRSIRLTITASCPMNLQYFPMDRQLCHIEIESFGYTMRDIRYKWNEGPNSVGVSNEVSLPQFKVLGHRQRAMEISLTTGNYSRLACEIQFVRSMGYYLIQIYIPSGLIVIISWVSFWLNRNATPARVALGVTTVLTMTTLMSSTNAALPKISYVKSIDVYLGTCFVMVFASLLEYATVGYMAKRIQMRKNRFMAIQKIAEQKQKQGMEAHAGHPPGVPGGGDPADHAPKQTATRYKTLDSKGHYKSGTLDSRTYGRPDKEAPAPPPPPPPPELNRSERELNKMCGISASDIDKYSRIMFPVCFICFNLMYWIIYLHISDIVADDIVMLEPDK

AmRDL [6] = molecular target: T6, AmRDL (Apis mellifera, UniProt A0A168SJP2); test: as above
T6 construct: homomeric
T6 sequence (A0A168SJP2 19-477): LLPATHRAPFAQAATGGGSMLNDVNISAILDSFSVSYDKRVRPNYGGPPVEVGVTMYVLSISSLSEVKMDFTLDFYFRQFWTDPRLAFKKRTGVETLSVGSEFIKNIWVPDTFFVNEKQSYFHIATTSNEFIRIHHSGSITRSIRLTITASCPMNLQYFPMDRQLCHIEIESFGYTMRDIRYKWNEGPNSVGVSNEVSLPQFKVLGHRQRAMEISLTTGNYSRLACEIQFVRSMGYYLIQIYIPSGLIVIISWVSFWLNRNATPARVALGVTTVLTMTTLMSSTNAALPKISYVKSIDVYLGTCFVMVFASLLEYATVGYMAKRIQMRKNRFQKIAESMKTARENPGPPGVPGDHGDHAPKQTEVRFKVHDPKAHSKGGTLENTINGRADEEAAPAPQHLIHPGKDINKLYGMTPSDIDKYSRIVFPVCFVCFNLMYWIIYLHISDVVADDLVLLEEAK

LsRDL [7] = molecular target: T5, LsRDL; test: two-electrode voltage clamp, GABA-induced current in Xenopus oocytes
CsRDL [8] = molecular target: T2, CsRDL; test: as above
TuRDL [9] = molecular target: T4, TuRDL; test: as above
AmRDL [10] = molecular target: T6, AmRDL; test: as above

Cc1cc(C2=NOC(c3cc(Cl)cc(Cl)c3)(C(F)(F)F)C2)ccc1C(=O)NCC(=O)NCC(F)(F)F (centres unmarked) [fluralaner] was tested, and the IC50 (DmRDL [1]) was > 10000 nM, the IC50 (CsRDL [2]) was 4.2 nM and the IC50 (DmRDL [3]) was 6.96 nM. For the same compound, the IC50 (TuRDL [4]) was 2.53 nM, the IC50 (LsRDL [5]) was 3.27 nM and the IC50 (AmRDL [6]) was 9.38 nM.

NCCCC(=O)O [GABA] gave an EC50 (LsRDL [7]) of 31900 nM, an EC50 (CsRDL [8]) of 18100 nM and an EC50 (TuRDL [9]) of 295000 nM. For the same compound, the EC50 (AmRDL [10]) was 13400 nM.

Work on N#Cc1nn(-c2c(Cl)cc(C(F)(F)F)cc2Cl)c(N)c1[S+]([O-])C(F)(F)F (centres unmarked) [fipronil] yielded an IC50 (CsRDL [2]) of 10 nM.
